# In PubChem BioAssay (NCI):
#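 The concentration for 50% growth inhibition is given as GI50. TGI: concentration producing complete growth inhibition.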
# What was measured:
# Assay in all cases: growth of human tumour cells (NCI), 384-well format
# [1] = tested on: 786-0 renal
# [2] = tested on: A498 renal
# [3] = tested on: A549 NSCLC
# [4] = tested on: ACHN renal
# [5] = tested on: BT-549 breast
# [6] = tested on: CAKI-1 renal
# [7] = tested on: CCRF-CEM leukemia
# [8] = tested on: COLO 205 colon
# [9] = tested on: DU-145 prostate
# [10] = tested on: EKVX NSCLC
# [11] = tested on: HCC-2998 colon
# [12] = tested on: HCT-116 colon
# [13] = tested on: HCT-15 colon
# [14] = tested on: HL-60(TB) leukemia
# [15] = tested on: HOP-62 NSCLC
# [16] = tested on: HOP-92 NSCLC
# [17] = tested on: HS 578T breast
# [18] = tested on: HT29 colon
# [19] = tested on: IGROV1 ovarian
# [20] = tested on: K-562 leukemia
# [21] = tested on: KM12 colon
# [22] = tested on: LOX IMVI melanoma
# [23] = tested on: M14 melanoma
# [24] = tested on: MALME-3M melanoma
# [25] = tested on: MCF7 breast
# [26] = tested on: MDA-MB-231 breast
# [27] = tested on: MDA-MB-435 melanoma
# [28] = tested on: MDA-MB-468 breast
# [29] = tested on: MOLT-4 leukemia
# [30] = tested on: NCI-H226 lung
# [31] = tested on: NCI-H23 lung
# [32] = tested on: NCI-H322M lung
# [33] = tested on: NCI-H460 NSCLC
# [34] = tested on: NCI-H522 lung
# [35] = tested on: NCI/ADR-RES ovarian
# [36] = tested on: OVCAR-3 ovarian
# [37] = tested on: OVCAR-4 ovarian
# [38] = tested on: OVCAR-5 ovarian
# [39] = tested on: PC-3 prostate
# [40] = tested on: RPMI-8226 leukemia
# [41] = tested on: RXF 393 renal
# [42] = tested on: SF-268 CNS
# [43] = tested on: SF-295 CNS
# [44] = tested on: SF-539 CNS
# [45] = tested on: SK-MEL-2 melanoma
# [46] = tested on: SK-MEL-28 melanoma
# [47] = tested on: SK-MEL-5 melanoma
# [48] = tested on: SK-OV-3 ovarian
# [49] = tested on: SN12C renal
# [50] = tested on: SNB-19 CNS
# [51] = tested on: SNB-75 CNS
# [52] = tested on: SR leukemia
# [53] = tested on: SW-620 colon
# [54] = tested on: T-47D breast
# [55] = tested on: TK-10 renal
# [56] = tested on: U251 glioblastoma
# [57] = tested on: UACC-257 melanoma
# [58] = tested on: UACC-62 melanoma
# [59] = tested on: UO-31 renal
smiles,measurement,setting,value
CN1CC[C@]2(c3cccc(O)c3)CC(=O)/C(=C/c3ccccc3)[C@H]1C2,GI50,[1],13.6 µM
same,TGI,[1],26.7 µM
same,GI50,[2],16.5 µM
same,TGI,[2],30.3 µM
same,GI50,[3],4.95 µM
same,TGI,[3],16.5 µM
same,GI50,[4],12.8 µM
same,TGI,[4],25.7 µM
same,GI50,[5],5.7 µM
same,TGI,[5],17.7 µM
same,GI50,[6],8.77 µM
same,TGI,[6],21.1 µM
same,GI50,[7],11.8 µM
same,TGI,[7],24.3 µM
same,GI50,[8],15.4 µM
same,TGI,[8],28.9 µM
same,GI50,[9],14.2 µM
same,TGI,[9],28.1 µM
same,GI50,[10],6.2 µM
same,TGI,[10],20.3 µM
same,GI50,[11],1.77 µM
same,TGI,[11],14.7 µM
same,GI50,[12],8.49 µM
same,TGI,[12],20.9 µM
same,GI50,[13],3.21 µM
same,TGI,[13],13.1 µM
same,GI50,[14],2.06 µM
same,TGI,[14],4.13 µM
same,GI50,[15],17 µM
same,TGI,[15],31.3 µM
same,GI50,[16],11.6 µM
same,TGI,[16],24 µM
same,GI50,[17],3.7 µM
same,TGI,[17],14.5 µM
same,GI50,[18],13.4 µM
same,TGI,[18],26.8 µM
same,GI50,[19],14.5 µM
same,TGI,[19],28 µM
same,GI50,[20],4.3 µM
same,TGI,[20],18 µM
same,GI50,[21],4.77 µM
same,TGI,[21],16.4 µM
same,GI50,[22],12 µM
same,TGI,[22],24.5 µM
same,GI50,[23],12.7 µM
same,TGI,[23],25.5 µM
same,GI50,[24],6.65 µM
same,TGI,[24],18.9 µM
same,GI50,[25],11.5 µM
same,TGI,[25],23.9 µM
same,GI50,[26],9.42 µM
same,TGI,[26],22.1 µM
same,GI50,[27],4.41 µM
same,TGI,[27],16.2 µM
same,GI50,[28],13.4 µM
same,TGI,[28],26.4 µM
same,GI50,[29],6.77 µM
same,TGI,[29],19.8 µM
same,GI50,[30],18.1 µM
same,TGI,[30],32.1 µM
same,GI50,[31],12 µM
same,TGI,[31],26.4 µM
same,GI50,[32],5.86 µM
same,TGI,[32],18.6 µM
same,GI50,[33],4.05 µM
same,TGI,[33],15.2 µM
same,GI50,[34],0.414 µM
same,TGI,[34],2.38 µM
same,GI50,[35],11.1 µM
same,TGI,[35],27.8 µM
same,GI50,[36],4.8 µM
same,TGI,[36],15.7 µM
same,GI50,[37],14.8 µM
same,TGI,[37],28.2 µM
same,GI50,[38],17.6 µM
same,TGI,[38],31.8 µM
same,GI50,[39],10 µM
same,TGI,[39],21.9 µM
same,GI50,[40],1.86 µM
same,TGI,[40],3.77 µM
same,GI50,[41],3.86 µM
same,TGI,[41],14.5 µM
same,GI50,[42],11.9 µM
same,TGI,[42],24.3 µM
same,GI50,[43],16.2 µM
same,TGI,[43],30.1 µM
same,GI50,[44],6.7 µM
same,TGI,[44],19.6 µM
same,GI50,[45],21.1 µM
same,TGI,[45],35.6 µM
same,GI50,[46],10.7 µM
same,TGI,[46],22.8 µM
same,GI50,[47],4.91 µM
same,TGI,[47],15.7 µM
same,GI50,[48],5.01 µM
same,TGI,[48],16.6 µM
same,GI50,[49],13.6 µM
same,TGI,[49],26.9 µM
same,GI50,[50],15 µM
same,TGI,[50],29 µM
same,GI50,[51],6.43 µM
same,TGI,[51],18.8 µM
same,GI50,[52],1.16 µM
same,TGI,[52],3.15 µM
same,GI50,[53],5.35 µM
same,TGI,[53],16.5 µM
same,GI50,[54],11.8 µM
same,TGI,[54],24.5 µM
same,GI50,[55],14.9 µM
same,TGI,[55],28.3 µM
same,GI50,[56],4.11 µM
same,TGI,[56],15.5 µM
same,GI50,[57],3.9 µM
same,TGI,[57],13.7 µM
same,GI50,[58],10.5 µM
same,TGI,[58],22.5 µM
Cc1cccc2nc3cccc(C(=O)NCCNCCNCCNC(=O)c4cccc5nc6cccc(C)c6nc45)c3nc12,GI50,[1],< 0.01 µM
same,TGI,[1],6.78 µM
same,GI50,[2],< 0.01 µM
same,TGI,[2],2.23 µM
same,GI50,[3],< 0.01 µM
same,TGI,[3],1.51 µM
same,GI50,[4],< 0.01 µM
same,TGI,[4],1.96 µM
same,GI50,[5],1.32 µM
same,TGI,[5],2.78 µM
same,GI50,[6],< 0.01 µM
same,TGI,[6],3.14 µM
same,GI50,[8],< 0.01 µM
same,TGI,[8],1.82 µM
same,GI50,[9],< 0.01 µM
same,TGI,[9],0.208 µM
same,GI50,[10],1.23 µM
same,TGI,[10],5.68 µM
same,GI50,[13],0.0212 µM
same,TGI,[13],> 100 µM
same,GI50,[14],< 0.01 µM
same,TGI,[14],0.154 µM
same,GI50,[15],< 0.01 µM
same,TGI,[15],1.39 µM
same,GI50,[17],0.0796 µM
same,TGI,[17],0.265 µM
same,GI50,[18],< 0.01 µM
same,TGI,[18],0.234 µM
same,GI50,[19],< 0.01 µM
same,TGI,[19],47.7 µM
same,GI50,[20],< 0.01 µM
same,TGI,[20],1.27 µM
same,GI50,[21],< 0.01 µM
same,TGI,[21],0.109 µM
same,GI50,[23],< 0.01 µM
same,TGI,[23],0.751 µM
same,GI50,[24],0.107 µM
same,TGI,[24],1.9 µM
same,GI50,[25],< 0.01 µM
same,TGI,[25],31.2 µM
same,GI50,[26],0.0115 µM
same,TGI,[26],0.628 µM
same,GI50,[27],0.133 µM
same,TGI,[27],1.9 µM
same,GI50,[28],< 0.01 µM
same,TGI,[28],1.21 µM
same,GI50,[29],< 0.01 µM
same,GI50,[30],0.124 µM
same,TGI,[30],1.19 µM
same,GI50,[31],0.179 µM
same,TGI,[31],1.76 µM
same,GI50,[32],0.139 µM
same,TGI,[32],1.14 µM
same,GI50,[33],< 0.01 µM
same,TGI,[33],0.229 µM
same,GI50,[34],0.101 µM
same,TGI,[34],0.221 µM
same,GI50,[36],< 0.01 µM
same,TGI,[36],2.62 µM
same,GI50,[37],0.188 µM
same,TGI,[37],2.02 µM
same,GI50,[38],0.0623 µM
same,TGI,[38],> 100 µM
same,GI50,[39],0.0171 µM
same,TGI,[39],2.28 µM
same,GI50,[41],< 0.01 µM
same,TGI,[41],0.231 µM
same,GI50,[42],0.0757 µM
same,TGI,[42],0.318 µM
same,GI50,[43],< 0.01 µM
same,TGI,[43],3.08 µM
same,GI50,[44],< 0.01 µM
same,TGI,[44],0.454 µM
same,GI50,[45],0.0713 µM
same,TGI,[45],0.209 µM
same,GI50,[46],0.51 µM
same,TGI,[46],2.14 µM
same,GI50,[47],< 0.01 µM
same,TGI,[47],1.21 µM
same,GI50,[48],0.0289 µM
same,TGI,[48],3.75 µM
same,GI50,[49],0.109 µM
same,TGI,[49],0.3 µM
same,GI50,[50],0.245 µM
same,TGI,[50],> 100 µM
same,GI50,[51],0.127 µM
same,TGI,[51],0.316 µM
same,GI50,[52],< 0.01 µM
same,GI50,[53],< 0.01 µM
same,TGI,[53],1.71 µM
same,GI50,[54],0.564 µM
same,TGI,[54],5.31 µM
same,GI50,[55],< 0.01 µM
same,TGI,[55],6.44 µM
same,GI50,[56],< 0.01 µM
same,TGI,[56],1.78 µM
same,GI50,[57],1.45 µM
same,TGI,[57],3.58 µM
same,GI50,[58],< 0.01 µM
same,TGI,[58],0.152 µM
same,GI50,[59],0.047 µM
same,TGI,[59],19.4 µM
